Patent US20050101595A1, “N-containing cycloalkyl-substituted amino-thiazole derivatives and pharmaceutical compositions for inhibiting cell proliferation and methods for their use” (PFIZER INC., priority 2003, published 2005)

Experiments:
HCT-116 cell line = test: Inhibition of cell growth, tetrazolium salt (MTT) assay; assay type: cell-based; conditions: Homo sapiens, MTT; for inhibition at 0.175 µM: HCT-116, HCT-116 cells, compound at 0.175 uM; for IC50: HCT-116, 120 h, first HCT-116 column (c4), three to five days, read-out: HCT-116 IC50
Outline: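 Growth inhibition is scored relative to cells receiving only 0.5% (v/v) DMSO. Plated cells rest 4 h, then take compound for three to five days at 37° C; MTT reduction to formazan is read at 540 nm.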

CDK2/Cyclin A = CDK2/Cyclin A (Homo sapiens, UniProt P24941); test: Inhibition of CDK2/Cyclin A Retinoblastoma Kinase Activity; assay type: biochemical; conditions: for inhibition at 0.05 µM: read-out: % inhibition of CDK2 (@ 0.05 μM), compound at 0.05 μM; for Ki: apparent Ki, CDK2/proteolyzed cyclin A, Rb fragment substrate, 25 μM ATP
Outline: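 CDK2 (10 or 19 nM), insect-cell expressed, gel-filtration purified with truncated cyclin A; Rb fragment substrate; 25 μM ATP; 10 mM HEPES pH 7.4, 10 mM MgCl2; 30° C, 60 or 75 min; EDTA stop; phosphocellulose/nitrocellulose capture, phosphorimager. % inhibition vs DMSO control, no-enzyme background subtracted.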

Row | SMILES | inhibition at 0.05 µM (CDK2/Cyclin A) [%] | IC50 (HCT-116 cell line) [µM] | Ki (CDK2/Cyclin A) [µM] | inhibition at 0.175 µM (HCT-116 cell line) [%]
1 | Nc1nc(NC2CCN(S(=O)(=O)CCCN3CCN4CCCC4C3)CC2)sc1C(=O)c1c(F)cccc1F (stereo not drawn) [Example V152] | 78 |  |  | 0
2 | Nc1nc(NC2CCN(S(=O)(=O)CCCNC3CCOCC3)CC2)sc1C(=O)c1c(F)cccc1F [Example V153] | 84 |  |  | 0
3 | CN(C)CCCCNCCCS(=O)(=O)N1CCC(Nc2nc(N)c(C(=O)c3c(F)cccc3F)s2)CC1 [Example V154] | 82 |  |  | 15
4 | Nc1nc(NC2CCN(S(=O)(=O)CCCN3Cc4ccccc4C3)CC2)sc1C(=O)c1c(F)cccc1F [Example V155] | 87 |  |  | 11
5 | Nc1nc(NC2CCN(S(=O)(=O)CCCN3CCNC(=O)CC3)CC2)sc1C(=O)c1c(F)cccc1F [Example V156] | 82 |  |  | 0
6 | Nc1nc(NC2CCN(S(=O)(=O)CCCNC3CCCCCCC3)CC2)sc1Cc1c(F)cccc1F [Example V158] | 90 |  |  | 23
7 | Nc1nc(NC2CCN(S(=O)(=O)CCCNC3CCCCCC3)CC2)sc1C(=O)c1c(F)cccc1F [Example V159] | 88 |  |  | 8
8 | Nc1nc(NC2CCN(S(=O)(=O)CCCNC3CCSCC3)CC2)sc1C(=O)c1c(F)cccc1F [Example V161] | 88 |  |  | 2
9 | Nc1nc(NC2CCN(S(=O)(=O)CCCNC3CCCNC3=O)CC2)sc1C(=O)c1c(F)cccc1F (stereo not drawn) [Example V162] | 83 |  |  | 9
10 | Nc1nc(NC2CCN(S(=O)(=O)CCCNCC3COCCO3)CC2)sc1C(=O)c1c(F)cccc1F (stereo not drawn) [Example V163] | 83 |  |  | 2
11 | Nc1nc(NC2CCN(S(=O)(=O)CCCNCc3ncccc3O)CC2)sc1C(=O)c1c(F)cccc1F [Example V165] | 93 |  |  | 6
12 | Nc1nc(NC2CCN(S(=O)(=O)CCCN3CCNC(=O)C3)CC2)sc1C(=O)c1c(F)cccc1F [Example V166] | 72 |  |  | 3
13 | Nc1nc(NC2CCN(S(=O)(=O)CCCN3CCCC(F)(F)C3)CC2)sc1C(=O)c1c(F)cccc1F [Example V167] | 83 |  |  | 0
14 | Nc1nc(NC2CCN(S(=O)(=O)CCCNCc3ccc[nH]c3=O)CC2)sc1C(=O)c1c(F)cccc1F [Example V169] | 76 |  |  | 25
15 | Nc1nc(NC2CCN(S(=O)(=O)CCCN[C@H]3CC[C@@H](CO)CC3)CC2)sc1C(=O)c1c(F)cccc1F [Example V170] | 82 |  |  | 14
16 | Cc1nnc(CCNCCCS(=O)(=O)N2CCC(Nc3nc(N)c(C(=O)c4c(F)cccc4F)s3)CC2)[nH]1 [Example V174] | 84 |  |  | 26
17 | Cc1nnc(CCNCCCS(=O)(=O)N2CCC(Nc3nc(N)c(C(=O)c4c(F)cccc4F)s3)CC2)o1 [Example V175] | 78 |  |  | 5
18 | C=C(C)CN(C)CCCS(=O)(=O)N1CCC(Nc2nc(N)c(C(=O)c3c(F)cccc3F)s2)CC1 [Example V177, (4-Amino-2-{[1-({3-[methyl(2-methyl-2-propen-1-yl)amino]propyl}sulfonyl)-4-piperidinyl]amino}-1,3-thiazol-5-yl)(2,6-difluorophenyl)methanone.] |  | 0.09 | 0.017 | 
19 | CN(CCCS(=O)(=O)N1CCC(Nc2nc(N)c(C(=O)c3c(F)cccc3F)s2)CC1)Cc1ccco1 [Example V179, (4-Amino-2-{[1-({3-[(2-furylmethyl)(methyl)amino]propyl}sulfonyl)-4-piperidinyl]amino}-1,3-thiazol-5-yl)(2,6-difluorophenyl)methanone.] |  | 0.17 | 0.011 | 
20 | CN(CCCS(=O)(=O)N1CCC(Nc2nc(N)c(C(=O)c3c(F)cccc3F)s2)CC1)Cc1ccccc1 [Example V181, (4-Amino-2-{[1-({3-[benzyl(methyl)amino]propyl}sulfonyl)-4-piperidinyl]amino}-1,3-thiazol-5-yl)(2,6-difluorophenyl)methanone.] |  | 0.06 | 0.0065 | 
21 | Nc1nc(NC2CCN(S(=O)(=O)CCCNCc3ccccc3F)CC2)sc1C(=O)c1c(F)cccc1F [Example V183, (4-Amino-2-{[1-({3-[(2-fluorobenzyl)amino]propyl}sulfonyl)-4-piperidinyl]amino}-1,3-thiazol-5-yl)(2,6-difluorophenyl)methanone.] |  | 0.09 | 0.004 | 

Continued, in another order:

Row | inhibition at 0.05 µM (CDK2/Cyclin A) [%] | IC50 (HCT-116 cell line) [µM] | Ki (CDK2/Cyclin A) [µM] | SMILES | inhibition at 0.175 µM (HCT-116 cell line) [%]
22 | 79 |  |  | Nc1ncccc1CNCCCS(=O)(=O)N1CCC(Nc2nc(N)c(C(=O)c3c(F)cccc3F)s2)CC1 [Example V151] | 0
23 | 83 |  |  | Nc1nc(NC2CCN(S(=O)(=O)CCCN[C@H]3CCC(=O)NC3)CC2)sc1C(=O)c1c(F)cccc1F [Example V157] | 46
24 | 84 |  |  | COC(=O)C1CCN(CCCS(=O)(=O)N2CCC(Nc3nc(N)c(C(=O)c4c(F)cccc4F)s3)CC2)C1 (stereo not drawn) [Example V160] | 0
25 | 85 |  |  | Nc1nc(NC2CCN(S(=O)(=O)CCCNCCC3CCOCC3)CC2)sc1C(=O)c1c(F)cccc1F [Example V164] | 0
26 | 83 |  |  | Nc1nc(NC2CCN(S(=O)(=O)CCCN3CCC(F)(F)CC3)CC2)sc1C(=O)c1c(F)cccc1F [Example V168] | 37
27 | 81 |  |  | COC1CCN(CCCS(=O)(=O)N2CCC(Nc3nc(N)c(C(=O)c4c(F)cccc4F)s3)CC2)CC1 [Example V171] | 65
28 | 81 |  |  | CC1=NNC(=O)C1CNCCCS(=O)(=O)N1CCC(Nc2nc(N)c(C(=O)c3c(F)cccc3F)s2)CC1 (stereo not drawn) [Example V172] | 11
29 | 85 |  |  | Cc1c(CNCCCS(=O)(=O)N2CCC(Nc3nc(N)c(C(=O)c4c(F)cccc4F)s3)CC2)cnn1C [Example V173] | 0
30 | 73 |  |  | Cc1nnc(CN(C)CCCS(=O)(=O)N2CCC(Nc3nc(N)c(C(=O)c4c(F)cccc4F)s3)CC2)o1 [Example V176] | 0
31 |  | 0.08 | 0.0046 | Nc1nc(NC2CCN(S(=O)(=O)CCCNCc3cccc(F)c3)CC2)sc1C(=O)c1c(F)cccc1F [Example V178, (4-Amino-2-{[1-({3-[(3-fluorobenzyl)amino]propyl}sulfonyl)-4-piperidinyl]amino}-1,3-thiazol-5-yl)(2,6-difluorophenyl)methanone.] | 
32 |  | 0.09 | 0.004 | Cc1cccc(CNCCCS(=O)(=O)N2CCC(Nc3nc(N)c(C(=O)c4c(F)cccc4F)s3)CC2)c1 [Example V180, (4-Amino-2-{[1-({3-[(3-methylbenzyl)amino]propyl}sulfonyl)-4-piperidinyl]amino}-1,3-thiazol-5-yl)(2,6-difluorophenyl)methanone.] | 
33 |  | 0.07 | 0.0047 | Nc1nc(NC2CCN(S(=O)(=O)CCCNCc3ccc(F)cc3)CC2)sc1C(=O)c1c(F)cccc1F [Example V182, (4-Amino-2-{[1-({3-[(4-fluorobenzyl)amino]propyl}sulfonyl)-4-piperidinyl]amino}-1,3-thiazol-5-yl)(2,6-difluorophenyl)methanone.] | 
